PubChem BioAssay AID270 (DTP/NCI, 2004)
“And” between values parts separate entries of the source, which are not always exact repeats. Identical values can stand only once. Results filed as inconclusive are left out.

Test system: BDF1 mice, s.c. Lewis lung carcinoma, T/C %
Test: NCI In Vivo Anticancer Drug Screen. Data for tumor model Lewis Lung Carcinoma (subcutaneous) in B6D2F1 (BDF1) mice
Description: The antitumor activity of compounds was measured in mice bearing transplantable tumors. Survival or tumor size were measured and the results are expressed as the measurement made in the treated group (T) divided by the measurement made in the vehicle treated control group (C). The tumor model used in this assay is Lewis Lung Carcinoma (subcutaneous) in B6D2F1 (BDF1) mice

With `OC1CC2CCC(C1)N2CCCN1c2ccccc2Sc2ccc(Cl)cc21` (configuration not stated) the T/C (endpoint: median survival time, dose: 12.5 mg/kg/injection, schedule: Q01DX009 (ip), vehicle: Klucel (hydroxypropylcellulose) (HPC), higher = longer survival) was 95 % of control, the T/C (endpoint: median survival time, dose: 25.0 mg/kg/injection, schedule: Q01DX009 (ip), vehicle: Klucel (hydroxypropylcellulose) (HPC), higher = longer survival) was 96 % of control and the T/C (endpoint: median survival time, dose: 50.0 mg/kg/injection, schedule: Q01DX009 (ip), vehicle: Klucel (hydroxypropylcellulose) (HPC), higher = longer survival) was 99 % of control.
For `CN(Cc1cnc2nc(N)nc(N)c2n1)c1ccc(C(=O)N[C@@H](CCC(=O)O)C(=O)O)cc1`, the T/C (endpoint: mean tumor weight, dose: 0.5 mg/kg/injection, schedule: Q01DX011 (ip), vehicle: alkali diluted with saline, higher = larger tumour) was 91 % of control, the T/C (endpoint: mean tumor weight, dose: 0.5 mg/kg/injection, schedule: Q01DX011 (ip), vehicle: carboxymethylcellulose (CMC), higher = larger tumour) was 97 % of control and the T/C (endpoint: mean tumor weight, dose: 0.75 mg/kg/injection, schedule: Q01DX011 (ip), vehicle: alkali diluted with saline, higher = larger tumour) was 111 % of control. For the same molecule, the T/C (endpoint: mean tumor weight, dose: 1.0 mg/kg/injection, schedule: Q01DX011 (ip), vehicle: alkali diluted with saline, higher = larger tumour) was 83 % of control, the T/C (endpoint: mean tumor weight, dose: 1.0 mg/kg/injection, schedule: Q01DX011 (ip), vehicle: carboxymethylcellulose (CMC), higher = larger tumour) was 91 % of control and the T/C (endpoint: mean tumor weight, dose: 1.5 mg/kg/injection, schedule: Q01DX011 (ip), vehicle: alkali diluted with saline, higher = larger tumour) was 93 % of control. For the same molecule, the T/C (endpoint: mean tumor weight, dose: 2.0 mg/kg/injection, schedule: Q01DX011 (ip), vehicle: alkali diluted with saline, higher = larger tumour) was 72 % of control, the T/C (endpoint: mean tumor weight, dose: 2.0 mg/kg/injection, schedule: Q01DX011 (ip), vehicle: carboxymethylcellulose (CMC), higher = larger tumour) was 90 % of control and the T/C (endpoint: mean tumor weight, dose: 4.0 mg/kg/injection, schedule: Q01DX011 (ip), vehicle: carboxymethylcellulose (CMC), higher = larger tumour) was 25 % of control. The T/C (endpoint: median survival time, dose: 0.5 mg/kg/injection, schedule: Q01DX009 (ip), vehicle: Klucel (hydroxypropylcellulose) (HPC), higher = longer survival) was 107 % of control, the T/C (endpoint: median survival time, dose: 0.5 mg/kg/injection, schedule: Q01DX009 (ip), vehicle: saline with Tween-80, higher = longer survival) was 89 % of control and 100 % of control and the T/C (endpoint: median survival time, dose: 1.0 mg/kg/injection, schedule: Q01DX009 (ip), vehicle: Klucel (hydroxypropylcellulose) (HPC), higher = longer survival) was 112 % of control. The T/C (endpoint: median survival time, dose: 1.0 mg/kg/injection, schedule: Q01DX009 (ip), vehicle: saline with Tween-80, higher = longer survival) was 93 % of control, the T/C (endpoint: median survival time, dose: 1.0 mg/kg/injection, schedule: Q01DX009 (ip), vehicle: saline, higher = longer survival) was 100 % of control and the T/C (endpoint: median survival time, dose: 2.0 mg/kg/injection, schedule: Q01DX009 (ip), vehicle: saline, higher = longer survival) was 102 % of control. For the same molecule, the T/C (endpoint: median survival time, dose: 4.0 mg/kg/injection, schedule: Q01DX009 (ip), vehicle: Klucel (hydroxypropylcellulose) (HPC), higher = longer survival) was 121 % of control, the T/C (endpoint: median tumor weight (est.), dose: 0.5 mg/kg/injection, schedule: Q01DX009 (ip), vehicle: saline with Tween-80, higher = larger tumour) was 95 % of control and the T/C (endpoint: median tumor weight (est.), dose: 1.0 mg/kg/injection, schedule: Q01DX009 (ip), vehicle: saline with Tween-80, higher = larger tumour) was 86 % of control. The T/C (endpoint: median tumor weight (est.), dose: 1.4 mg/kg/injection, schedule: Q01DX011 (ip), vehicle: sodium bicarbonate, higher = larger tumour) was 99 % of control and the T/C (endpoint: median tumor weight (est.), dose: 2.1 mg/kg/injection, schedule: Q01DX011 (ip), vehicle: sodium bicarbonate, higher = larger tumour) was 74 % of control.
`CC1=C(/C=C/C(C)=C/C=C/C(C)=C/C(=O)O)C(C)(C)CCC1` was tested, and the T/C (endpoint: median survival time, dose: 6.25 mg/kg/injection, schedule: Q01DX005 (ip), vehicle: saline with Tween-80, higher = longer survival) was 109 % of control, the T/C (endpoint: median survival time, dose: 8.0 mg/kg/injection, schedule: Q01DX009 (ip), vehicle: saline with Tween-80, higher = longer survival) was 102 % of control and the T/C (endpoint: median survival time, dose: 16.0 mg/kg/injection, schedule: Q01DX009 (ip), vehicle: saline with Tween-80, higher = longer survival) was 93 % of control. The T/C (endpoint: median survival time, dose: 32.0 mg/kg/injection, schedule: Q01DX009 (ip), vehicle: saline with Tween-80, higher = longer survival) was 93 % of control.
For `IP(c1ccccc1)(c1ccccc1)(c1ccccc1)N1C2CCCCC21` (configuration not stated), the T/C (endpoint: median survival time, dose: 0.3 mg/kg/injection, schedule: Q01DX009 (ip), vehicle: Klucel (hydroxypropylcellulose) (HPC), higher = longer survival) was 94 % of control, the T/C (endpoint: median survival time, dose: 0.6 mg/kg/injection, schedule: Q01DX009 (ip), vehicle: Klucel (hydroxypropylcellulose) (HPC), higher = longer survival) was 103 % of control and the T/C (endpoint: median survival time, dose: 38.0 micrograms/kg/injection, schedule: Q01DX009 (ip), vehicle: Klucel (hydroxypropylcellulose) (HPC), higher = longer survival) was 94 % of control. The T/C (endpoint: median survival time, dose: 75.0 micrograms/kg/injection, schedule: Q01DX009 (ip), vehicle: Klucel (hydroxypropylcellulose) (HPC), higher = longer survival) was 91 % of control, the T/C (endpoint: median survival time, dose: 150.0 micrograms/kg/injection, schedule: Q01DX009 (ip), vehicle: Klucel (hydroxypropylcellulose) (HPC), higher = longer survival) was 104 % of control and the T/C (endpoint: median survival time, dose: 300.0 micrograms/kg/injection, schedule: Q01DX009 (ip), vehicle: Klucel (hydroxypropylcellulose) (HPC), higher = longer survival) was 91 % of control.
With `CCC[C@H]1CCCCN1` the T/C (endpoint: mean tumor weight, dose: 25.0 mg/kg/injection, schedule: Q01DX011 (ip), vehicle: saline, higher = larger tumour) was 88 % of control.
In the case of `Cc1c(C)c2c(c(C)c1O)CCC(C)(CCCC(C)CCCC(C)CCCC(C)C)O2` (configuration not stated), the T/C (endpoint: median survival time, dose: 12.5 mg/kg/injection, schedule: Q02DX009 (ip), vehicle: olive oil, sesame oil, peanut oil, higher = longer survival) is reported as 116 % of control, the T/C (endpoint: median survival time, dose: 25.0 mg/kg/injection, schedule: Q02DX009 (ip), vehicle: olive oil, sesame oil, peanut oil, higher = longer survival) is reported as 100 % of control and the T/C (endpoint: median survival time, dose: 50.0 mg/kg/injection, schedule: Q02DX009 (ip), vehicle: olive oil, sesame oil, peanut oil, higher = longer survival) is reported as 108 % of control. The T/C (endpoint: median survival time, dose: 100.0 mg/kg/injection, schedule: Q02DX009 (ip), vehicle: olive oil, sesame oil, peanut oil, higher = longer survival) was 104 % of control, the T/C (endpoint: median survival time, dose: 200.0 mg/kg/injection, schedule: Q02DX009 (ip), vehicle: olive oil, sesame oil, peanut oil, higher = longer survival) was 122 % of control and the T/C (endpoint: median survival time, dose: 400.0 mg/kg/injection, schedule: Q02DX009 (ip), vehicle: olive oil, sesame oil, peanut oil, higher = longer survival) was 118 % of control.
For `COc1cccc(/C=C/[N+](=O)[O-])c1`, the T/C (endpoint: median survival time, dose: 20.0 mg/kg/injection, schedule: Q01DX009 (ip), vehicle: saline with Tween-80, higher = longer survival) was 104 % of control.
In the case of `C[C@]12CC[C@@H]3c4ccccc4CC[C@H]3[C@@H]1CC[C@@H]2O`, the T/C (endpoint: mean tumor weight, dose: 43.8 mg/kg/injection, schedule: Q01DX011 (sc), vehicle: steriod suspending solution, higher = larger tumour) is reported as 71 % of control, the T/C (endpoint: mean tumor weight, dose: 87.5 mg/kg/injection, schedule: Q01DX011 (sc), vehicle: steriod suspending solution, higher = larger tumour) is reported as 51 % of control and the T/C (endpoint: mean tumor weight, dose: 125.0 mg/kg/injection, schedule: Q01DX011 (sc), vehicle: steriod suspending solution, higher = larger tumour) is reported as 120 % of control. The T/C (endpoint: mean tumor weight, dose: 175.0 mg/kg/injection, schedule: Q01DX011 (sc), vehicle: steriod suspending solution, higher = larger tumour) was 56 % of control, the T/C (endpoint: mean tumor weight, dose: 250.0 mg/kg/injection, schedule: Q01DX011 (sc), vehicle: steriod suspending solution, higher = larger tumour) was 45 % of control and 69 % of control and the T/C (endpoint: mean tumor weight, dose: 350.0 mg/kg/injection, schedule: Q01DX011 (sc), vehicle: steriod suspending solution, higher = larger tumour) was 32 % of control. For the same molecule, the T/C (endpoint: mean tumor weight, dose: 400.0 mg/kg/injection, schedule: Q01DX011 (sc), vehicle: steriod suspending solution, higher = larger tumour) was 14 % of control, the T/C (endpoint: mean tumor weight, dose: 600.0 mg/kg/injection, schedule: Q01DX011 (sc), vehicle: steriod suspending solution, higher = larger tumour) was 22 % of control and the T/C (endpoint: mean tumor weight, dose: 1000.0 mg/kg/injection, schedule: Q01DX011 (sc), vehicle: steriod suspending solution, higher = larger tumour) was 35 % of control and 54 % of control.
For `CCN(CC)Cc1c(O)ccc2c3c(c(=O)oc12)CCCC3`, the T/C (endpoint: median survival time, dose: 29.0 mg/kg/injection, schedule: Q01DX009 (ip), vehicle: Klucel (hydroxypropylcellulose) (HPC), higher = longer survival) was 99 % of control and the T/C (endpoint: median survival time, dose: 58.0 mg/kg/injection, schedule: Q01DX009 (ip), vehicle: Klucel (hydroxypropylcellulose) (HPC), higher = longer survival) was 94 % of control.
`COC(=O)Nc1nc2ccc(C(=O)c3ccccc3)cc2[nH]1` was tested, and the T/C (endpoint: median survival time, dose: 2.0 mg/kg/injection, schedule: Q04DX003 (ip), vehicle: saline with Tween-80, higher = longer survival) was 89 % of control, the T/C (endpoint: median survival time, dose: 4.0 mg/kg/injection, schedule: Q04DX003 (ip), vehicle: saline with Tween-80, higher = longer survival) was 95 % of control and the T/C (endpoint: median survival time, dose: 8.0 mg/kg/injection, schedule: Q04DX003 (ip), vehicle: saline with Tween-80, higher = longer survival) was 98 % of control. For the same molecule, the T/C (endpoint: median survival time, dose: 32.0 mg/kg/injection, schedule: Q04DX003 (ip), vehicle: saline with Tween-80, higher = longer survival) was 95 % of control and the T/C (endpoint: median survival time, dose: 64.0 mg/kg/injection, schedule: Q04DX003 (ip), vehicle: saline with Tween-80, higher = longer survival) was 102 % of control.
In the case of `O=NN(CCCl)C(=O)NC1CC2CCC1C2` (configuration not stated), the T/C (endpoint: median survival time, dose: 10.0 mg/kg/injection, schedule: Q01DX001 (ip), vehicle: Klucel (hydroxypropylcellulose) (HPC), higher = longer survival) is reported as 102 % of control and 108 % of control, the T/C (endpoint: median survival time, dose: 20.0 mg/kg/injection, schedule: Q01DX001 (ip), vehicle: Klucel (hydroxypropylcellulose) (HPC), higher = longer survival) is reported as 99 % of control and 102 % of control and the T/C (endpoint: median survival time, dose: 40.0 mg/kg/injection, schedule: Q01DX001 (ip), vehicle: Klucel (hydroxypropylcellulose) (HPC), higher = longer survival) is reported as 106 % of control. For the same molecule, the T/C (endpoint: median survival time, dose: 80.0 mg/kg/injection, schedule: Q01DX001 (ip), vehicle: Klucel (hydroxypropylcellulose) (HPC), higher = longer survival) was 260 % of control and the T/C (endpoint: median survival time, dose: 160.0 mg/kg/injection, schedule: Q01DX001 (ip), vehicle: Klucel (hydroxypropylcellulose) (HPC), higher = longer survival) was 117 % of control.
With `CNNCc1ccc(C(=O)NC(C)C)cc1` the T/C (endpoint: median survival time, dose: 25.0 mg/kg/injection, schedule: Q08HX024 (ip), vehicle: saline, higher = longer survival) was 100 % of control and the T/C (endpoint: median survival time, dose: 50.0 mg/kg/injection, schedule: Q08HX024 (ip), vehicle: saline, higher = longer survival) was 112 % of control.
With `CC(=O)NC(Cc1ccc(N(CCCl)CCCl)cc1)C(=O)O` (configuration not stated) the T/C (endpoint: median survival time, dose: 3.13 mg/kg/injection, schedule: Q01DX009 (ip), vehicle: other, higher = longer survival) was 104 % of control, the T/C (endpoint: median survival time, dose: 6.25 mg/kg/injection, schedule: Q01DX009 (ip), vehicle: other, higher = longer survival) was 120 % of control and the T/C (endpoint: median survival time, dose: 25.0 mg/kg/injection, schedule: Q01DX009 (ip), vehicle: other, higher = longer survival) was 114 % of control.
